# Laboratory results reported in patent US9145392B2, “Imidazole amines as modulators of kinase activity” (Merck Patent GmbH, priority 2011, dated 2015).
# How the values were obtained:
# [1] = target: P70S6K (T412E mutant) (Homo sapiens (Human), UniProt P23443, T412E); assay: P70S6K enzyme assay; assay type: biochemical; details: read-out: IC50 p70S6K
# Summary of the method: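 Read-out is the substrate/phosphopeptide ratio from mobility-shift electrophoresis on a LabChip 3000.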
# [2] = target: His-AKT (Full Length) (Homo sapiens (Human), UniProt P31749); assay: AKT enzyme assay; assay type: biochemical; details: read-out: IC50 AKT
# His-AKT (Full Length), sequence (P31749 whole entry): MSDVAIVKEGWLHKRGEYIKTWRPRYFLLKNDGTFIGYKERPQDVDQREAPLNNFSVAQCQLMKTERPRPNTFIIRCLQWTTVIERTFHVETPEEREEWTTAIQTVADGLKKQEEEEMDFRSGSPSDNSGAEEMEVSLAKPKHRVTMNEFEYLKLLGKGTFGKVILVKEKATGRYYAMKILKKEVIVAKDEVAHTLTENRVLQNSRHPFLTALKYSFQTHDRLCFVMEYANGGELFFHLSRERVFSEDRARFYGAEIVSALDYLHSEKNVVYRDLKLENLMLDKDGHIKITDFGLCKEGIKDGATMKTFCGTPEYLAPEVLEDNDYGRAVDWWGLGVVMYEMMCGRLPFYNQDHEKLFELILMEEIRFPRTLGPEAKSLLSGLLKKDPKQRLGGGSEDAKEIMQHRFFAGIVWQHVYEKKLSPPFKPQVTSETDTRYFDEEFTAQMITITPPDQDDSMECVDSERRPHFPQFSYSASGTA
# P70S6K (T412E mutant), sequence (P23443 whole entry T412E): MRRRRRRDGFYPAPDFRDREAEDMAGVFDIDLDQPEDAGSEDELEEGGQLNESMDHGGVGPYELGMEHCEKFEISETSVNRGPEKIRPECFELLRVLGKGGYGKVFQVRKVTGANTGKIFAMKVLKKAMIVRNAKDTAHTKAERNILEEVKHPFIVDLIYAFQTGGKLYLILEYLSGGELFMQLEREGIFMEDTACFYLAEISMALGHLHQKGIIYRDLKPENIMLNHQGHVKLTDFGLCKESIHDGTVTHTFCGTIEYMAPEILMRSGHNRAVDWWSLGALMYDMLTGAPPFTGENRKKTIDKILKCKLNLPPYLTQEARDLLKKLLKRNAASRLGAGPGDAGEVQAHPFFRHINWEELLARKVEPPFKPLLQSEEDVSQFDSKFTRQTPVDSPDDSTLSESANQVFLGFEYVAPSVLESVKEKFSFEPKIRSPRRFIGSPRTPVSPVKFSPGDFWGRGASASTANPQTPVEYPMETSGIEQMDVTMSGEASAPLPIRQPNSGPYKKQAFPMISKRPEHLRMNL
SMILES,IC50 [1] [nM],IC50 [2] [nM]
"NC(=O)c1c(N)ncnc1N1CCC(c2nc(-c3ccc(F)c(C(F)(F)F)c3)cn2CCNCC2CC2)CC1 [Compound 359, 4-Amino-6-{4-[1-[2-(cyclopropylmethyl-amino)-ethyl]-4-(4-fluoro-3-trifluoromethyl-phenyl)-1H-imidazol-2-yl]-piperidin-1-yl}-pyrimidine-5-carboxylic acid amide]",2.7,12
Cc1cc(-c2cn(CCN3CCCC3)c(C3CCN(c4ncnc(N)c4OC(C)C)CC3)n2)ccc1F [Compound 299],10,8.9
"CCOc1c(N)ncnc1N1CCC(c2nc(-c3ccnc(C(F)(F)F)c3)cn2CCN2CCC2)CC1 [Compound 116, 6-(4-(1-(2-(azetidin-1-yl)ethyl)-4-(2-(trifluoromethyl)pyridin-4-yl)-1H-imidazol-2-yl)piperidin-1-yl)-5-ethoxypyrimidin-4-amine]",2.4,8.2
"N#Cc1c(N)ncnc1N1CCC(c2nc(-c3cnoc3)cn2CCN2CCC2)CC1 [Compound 132, 4-amino-6-(4-(1-(2-(azetidin-1-yl)ethyl)-4-(isoxazol-4-yl)-1H-imidazol-2-yl)piperidin-1-yl)pyrimidine-5-carbonitrile]",23,220
"C=Cc1c(N)ncnc1N1CCC(c2nc(-c3ccnc(C(C)C)c3)cn2CCN2CCC2)CC1 [Compound 182, 6-(4-(1-(2-(azetidin-1-yl)ethyl)-4-(2-isopropylpyridin-4-yl)-1H-imidazol-2-yl)piperidin-1-yl)-5-vinylpyrimidin-4-amine]",0.7,2.2
"CN(C)CCn1cc(-c2ccc(F)c(C(F)(F)F)c2)nc1C1CCN(c2ncnc(N)c2-c2ccc(F)cc2)CC1 [Compound 68, 6-{4-[1-(2-Dimethylamino-ethyl)-4-(4-fluoro-3-trifluoromethyl-phenyl)-1H-imidazol-2-yl]-piperidin-1-yl}-5-(4-fluoro-phenyl)-pyrimidin-4-ylamine]",7.3,230
"Nc1ncnc(N2CCC(c3nc(-c4ccnc(C(F)(F)F)c4)cn3CCN3CCC3)CC2)c1-c1cnoc1 [Compound 168, 6-(4-(1-(2-(azetidin-1-yl)ethyl)-4-(2-(trifluoromethyl)pyridin-4-yl)-1H-imidazol-2-yl)piperidin-1-yl)-5-(isoxazol-4-yl)pyrimidin-4-amine]",2.9,2.7
"Cn1cc(-c2ccc(F)c(C(F)(F)F)c2)nc1C1CCN(c2ncnc(N)c2-c2ccc(CO)cc2)CC1 [Compound 14, [4-(4-Amino-6-{4-[4-(4-fluoro-3-trifluoromethyl-phenyl)-1-methyl-1H-imidazol-2-yl]-piperidin-1-yl}-pyrimidin-5-yl)-phenyl]-methanol]",1.9,250
CCc1c(N)ncnc1N1CCC(c2nc(-c3ccc(F)c(F)c3)cn2CCN2CCCC2)CC1 [Compound 233],1.1,8.2
"Cc1cc(-c2cn(CCO)c(C3CCN(c4ncnc(N)c4C(N)=O)CC3)n2)ccc1F [Compound 393, 4-Amino-6-{4-[4-(4-fluoro-3-methyl-phenyl)-1-(2-hydroxy-ethyl)-1H-imidazol-2-yl]-piperidin-1-yl}-pyrimidine-5-carboxylic acid amide]",2.8,47
Nc1ncnc(N2CCC(c3nc(-c4ccc(F)c(C(F)(F)F)c4)cn3CCN3CCC3)CC2)c1-c1ccc(C(=O)O)cc1 [Compound 224],5.7,12
"CCc1c(N)ncnc1N1CCC(c2nc(-c3ccc(F)c(C(F)(F)F)c3)cn2CCN)CC1 [Compound 139, 6-(4-(1-(2-aminoethyl)-4-(4-fluoro-3-(trifluoromethyl)phenyl)-1H-imidazol-2-yl)piperidin-1-yl)-5-ethylpyrimidin-4-amine]",1.1,6.6
Nc1ncnc(N2CCC(c3nc(-c4ccc(C(F)(F)F)cc4)cn3CCN3CCCC3)CC2)c1Br [Compound 265],6.2,110
"Nc1ncnc(N2CCC(c3nc(-c4ccc(F)c(C(F)(F)F)c4)cn3CCN3CCC3)CC2)c1-c1cnoc1 [Compound 109, 6-(4-(1-(2-(azetidin-1-yl)ethyl)-4-(4-fluoro-3-(trifluoromethyl)phenyl)-1H-imidazol-2-yl)piperidin-1-yl)-5-(isoxazol-4-yl)pyrimidin-4-amine]",0.9,1.6
"N#Cc1c(N)ncnc1N1CCC(c2nc(-c3ccc(F)c(C(F)(F)F)c3)cn2C2CCNC2)CC1 (stereo not drawn) [Compound 137, 4-amino-6-(4-(4-(4-fluoro-3-(trifluoromethyl)phenyl)-1-(pyrrolidin-3-yl)-1H-imidazol-2-yl)piperidin-1-yl)pyrimidine-5-carbonitrile]",2.7,11
"N#Cc1c(N)ncnc1N1CCC(c2nc(-c3ccccc3F)cn2CCN2CCC2)CC1 [Compound 353, 4-Amino-6-{4-[1-(2-azetidin-1-yl-ethyl)-4-(2-fluoro-phenyl)-1H-imidazol-2-yl]-piperidin-1-yl}-pyrimidine-5-carbonitrile]",14,140
"N#Cc1c(N)ncnc1N1CCC(c2nc(-c3ccc4[nH]ncc4c3)cn2CCN2CCC2)CC1 [Compound 207, 4-Amino-6-{4-[1-(2-azetidin-1-yl-ethyl)-4-(1H-indazol-5-yl)-1H-imidazol-2-yl]-piperidin-1-yl}-pyrimidine-5-carbonitrile]",22,105
C=Cc1c(N)ncnc1N1CCC(c2nc(-c3ccc(F)cc3)cn2CCN2CCCC2)CC1 [Compound 241],2.9,16
"NC(=O)c1c(N)ncnc1N1CCC(c2nc(-c3ccc(F)c(C(F)(F)F)c3)cn2C2CNC2)CC1 [Compound 143, 4-amino-6-(4-(1-(azetidin-3-yl)-4-(4-fluoro-3-(trifluoromethyl)phenyl)-1H-imidazol-2-yl)piperidin-1-yl)pyrimidine-5-carboxamide]",16,670
"Cc1ccc(-c2c(N)ncnc2N2CCC(c3nc(-c4ccc(F)c(C(F)(F)F)c4)cn3C)CC2)s1 [Compound 20, 6-{4-[4-(4-Fluoro-3-trifluoromethyl-phenyl)-1-methyl-1H-imidazol-2-yl]-piperidin-1-yl}-5-(5-methyl-thiophen-2-yl)-pyrimidin-4-ylamine]",7.1,2700
"CCO/C=C/c1c(N)ncnc1N1CCC(c2nc(-c3ccc(F)c(C(F)(F)F)c3)cn2CCN(C)C)CC1 [Compound 86, (E)-6-(4-(1-(2-(Dimethylamino)ethyl)-4-(4-fluoro-3-(trifluoromethyl)phenyl)-1H-imidazol-2-yl)piperidin-1-yl)-5-(2-ethoxyvinyl)pyrimidin-4-amine]",1.9,4
Nc1ncnc(N2CCC(c3nc(-c4ccc(F)c(C(F)(F)F)c4)cn3CCN3CCC3)CC2)c1C=O [Compound 285],1,1.4
CCOc1c(N)ncnc1N1CCC(c2nc(-c3ccc(F)c(C)c3)cn2CCN(CC)CC)CC1 [Compound 303],2.4,0.8
"CC(C)c1c(N)ncnc1N1CCC(c2nc(-c3ccc(F)c(C(F)(F)F)c3)cn2CCN2CCC2)CC1 [Compound 114, 6-(4-(1-(2-(azetidin-1-yl)ethyl)-4-(4-fluoro-3-(trifluoromethyl)phenyl)-1H-imidazol-2-yl)piperidin-1-yl)-5-isopropylpyrimidin-4-amine]",3.6,6.6
